Measurements taken from patent US10941121B2 (AZIENDA OSPEDALIERA UNIVERSITARIA SENESE, priority 2015, dated 2021).
Where two headings read alike, the source gives them in different places.

Legend:
HIV-1 (IIIB) = settings: read-out: EC50 replication of HIV-1 (IIIB) in MT4-cells; cited from earlier work
MOLT-4 T-lymphocytic = settings: cited from earlier work
DDX3 = DDX3 (Homo sapiens, UniProt O00571); settings: literature values; cited from earlier work
[1] = Cytotoxicity in the JEV cell culture system; settings: hamster
[2] = test system: Hepatitis C Virus (HCV) replicon system; experiment: HCV replicon system, luciferase method in LucUbiNeo-ET cells; settings: for EC50: read-out: EC50 (μM) HCV replicon system
HIV (PBMC) = experiment: HIV infectious cell culture system in PBMC, HIV-1 RNA in supernatant; settings: Human immunodeficiency virus 1, PBMC, 72 h, read-out: EC50 HIV (PBMC) 72 h
[3] = Cytotoxicity, MTT method in LUNET cells; type: cell-based; settings: human; MMT method in LUNET cells; read-out: CC50 (μM) non-infected cells
Method: (§1) Toxicity (CC50) was analysed in the Lunet/HuH7 cells by the addition of 10 μL of MTT (3-(4,5-dimethylthiazol-2-yl)-2,5-diphenyltetrazolium bromide) per well. After 4 h of incubation at 37° C. in a humidified atmosphere with 5% CO2, the amount of formazan produced was quantified spectrophotometrically at 550/620 nm (C. Pannecouque et al, Nature protocol 2008; 3 (3): 427-434). […] These assays were done in duplicate.

[4] = Cytotoxicity in PBMC, CellTiter 96 MTS viability assay; type: cell-based; settings: human, human primary PBMCs
DDX3 Helicase [5] = target: T1, DDX3 Helicase (Homo sapiens, UniProt O00571); settings: read-out: ID50 (μM) against DDX3 Helicase; n.a. = compound not active
T1 sequence (O00571 whole entry): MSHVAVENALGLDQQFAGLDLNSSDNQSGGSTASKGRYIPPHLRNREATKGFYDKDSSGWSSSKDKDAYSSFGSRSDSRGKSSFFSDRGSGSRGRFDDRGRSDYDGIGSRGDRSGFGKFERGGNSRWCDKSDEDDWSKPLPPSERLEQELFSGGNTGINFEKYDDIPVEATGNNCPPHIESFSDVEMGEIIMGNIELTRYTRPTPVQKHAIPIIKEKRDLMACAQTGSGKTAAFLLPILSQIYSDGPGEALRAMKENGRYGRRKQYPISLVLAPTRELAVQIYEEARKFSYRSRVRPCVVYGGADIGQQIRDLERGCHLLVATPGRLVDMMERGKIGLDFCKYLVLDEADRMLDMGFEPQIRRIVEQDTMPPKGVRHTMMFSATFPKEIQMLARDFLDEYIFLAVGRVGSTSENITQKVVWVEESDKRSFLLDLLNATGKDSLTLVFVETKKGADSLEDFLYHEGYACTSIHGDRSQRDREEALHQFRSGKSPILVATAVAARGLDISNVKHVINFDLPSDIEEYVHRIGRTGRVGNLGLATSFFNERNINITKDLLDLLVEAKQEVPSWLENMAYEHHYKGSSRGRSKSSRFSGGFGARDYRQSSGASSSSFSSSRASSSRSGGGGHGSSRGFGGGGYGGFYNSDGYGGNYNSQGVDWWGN

JEV strain (NJ2008) = experiment: JEV infectious cell culture system, plaque formation assay in BHK-21 cells; settings: Japanese encephalitis virus, BHK-21, read-out: JEV EC50
[6] = test system: EBOV expressing GFP (EBOV/GFP); type: cell-based, Ebola virus
[7] = Parallel Artificial Membrane Permeability Assay (PAMPA); type: in vitro ADME; settings: for Papp at 5 h, 0.5 mM: PAMPA, read-out: PAMPA Papp *10^−6 (cm/s) GI; for PAMPA membrane retention (RM %): value in brackets in the PAMPA cell
Method: Parallel Artificial Membrane Permeability Assay (PAMPA). Donor solution (0.5 mM) was prepared by diluting 1 mM dimethylsulfoxide (DMSO) compound stock solution using phosphate buffer (pH 7.4, 0.025 M). Filters were coated with 5 μL of a 1% (w/v) dodecane solution of phosphatidylcholine prepared from CHCl3 solution 10% w/v, for intestinal permeability. Donor solution (150 μL) was added to each well of the filter plate. To each well of the acceptor plate were added […] (50% DMSO in phosphate buffer). All compounds were tested in three different plates on different days. The sandwich was incubated for 5 h at room temperature under gentle shaking. After the incubation time, the plates were separated, and samples were taken from both receiver and donor sides and analyzed using LC with UV detection at 280 nm.
LC analysis were performed with a Varian Prostar HPLC system (Varian Analytical Instruments, USA) equipped with a binary pump with a manual injection valve and model Prostar 325 UV-VIS Detector.
Permeability (Papp) for PAMPA was calculated according to the following equation, obtained from Wohnsland and Faller and Sugano et al. equation with some modification in order to obtain permeability values in cm s^−1,
where VA is the volume in the acceptor well, VD is the volume in the donor well (cm^3), A is the “effective area” of the membrane (cm^2), t is the incubation time (s) and r the ratio between drug concentration in the acceptor and equilibrium concentration of the drug in the total volume (VD+VA). Drug concentration is estimated by using the peak area integration.
Membrane retentions (%) were calculated according to the following equation: […]
where r is the ratio between drug concentration in the acceptor and equilibrium concentration, D, A, and Eq represented drug concentration in the donor, acceptor and equilibrium solution, respectively.

[8] = test system: HIV-1 wild-type reference strain NL4-3; experiment: HIV-1 phenotypic assay, MT-2 cells then TZM-bl cells, luciferase; type: cell-based; settings: Human immunodeficiency virus 1, NL43; first cycle in MT-2 cells, additional round in TZM-bl cells
Water Solubility Assay = type: physicochemical; settings: thermodynamic from solid
Method: Water Solubility Assay. Each solid compound (1 mg) was added to 1 mL of water. The samples were shaked in a shaker bath at room temperature for 24-36 h. The suspensions were filtered through a 0.45 μm nylon filter (Acrodisc), and the solubilized compound determined by LC-MS-MS assay. For each compound the determination was performed in triplicate.
For the quantification was used an LC-MS system consisted of a Varian apparatus (Varian Inc) including a vacuum solvent degassing unit, two pumps (212-LC), a Triple Quadrupole MSD (Mod. 320-LC) mass spectrometer with ES interface and Varian MS Workstation System Control Vers. 6.9 software. […] The flow rate was 0.2 mL min^−1 and injection volume was 5 μL. The instrument operated in positive mode and parameters were: detector 1850 V, drying gas pressure 25.0 psi, desolvation temperature 300.0° C., nebulizing gas 40.0 psi, needle 5000 V and shield 600 V. Nitrogen was used as nebulizer gas and drying gas. Collision induced dissociation was performed using Argon as the collision gas at a pressure of 1.8 mTorr in the collision cell.

DDX3 Helicase [9] = target: T1, DDX3 Helicase; experiment: biochemical
[10] = test system: human liver microsome (HLM); experiment: Microsomal Stability Assay; settings: human liver microsomes, 37 °C, 60 min, compound 50 μM; percentage of not metabolized compound
HIV = settings: EI01D; read-out: EC50 inhibition of viral load of PBMCs infected with HIV; cited from earlier work
[11] = test system: HCV Jc1 (genotype 2a virus); experiment: HCV infectious cell culture system, NS5A immunostaining; settings: Hepatitis C virus, Huh7.5, read-out: HCV EC50
[12] = Cytotoxicity, MTT method in HuH7.5 cells; type: cell-based; settings: human, non-infected, read-out: HCV CC50
Method: After 4 h of incubation at 37° C. in a humidified atmosphere with 5% CO2, the amount of formazan produced was quantified spectrophotometrically at 550/620 nm (C. Pannecouque et al, Nature protocol 2008; 3 (3): 427-434). […] These assays were done in duplicate.

[13] = Cytotoxicity in Huh7 cells, nuclei counts; settings: human
Lunet/HuH7 cells = experiment: Cytotoxicity, MTT method in LUNET cells; type: cell-based; settings: MMT method in LUNET cells; read-out: CC50 (μM) non-infected cells
Method: as §1

in vitro = settings: hamster
[14] = phosphatidylcholine in dodecane, pH 7.4, 5 h, room temperature
[15] = experimental aqueous solubility, read-out: LogS (converted)
[16] = room temperature, 24-36 h, read-out: Aq. Solub.
[17] = DENV CC50, Huh7 cells, DENV experiment
[18] = WNV CC50, Huh7 cells, WNV experiment

DDX3, sequence (O00571 whole entry): as above

O=C(CN1C(=O)/C(=C/c2cccc(Br)c2)SC1=S)Nc1ccccc1O [FE15]
EC50 (HIV-1 (IIIB)): 86.7 µM | CC50 (MOLT-4 T-lymphocytic): > 200 µM | Ki (DDX3): 5.4 µM

CCOCc1cn(-c2cccc(S(=O)(=O)Nc3ccccc3C(F)(F)F)c2)nn1 [Compound 66d, 3-(4-(ethoxymethyl)-1H-1,2,3-triazol-1-yl)-N-(2-(trifluoromethyl)phenyl) benzenesulfonamide]
CC50 [1]: > 50 µM | EC50 ([2]; Hepatitis C virus, 48 h): > 58.6 µM | EC50 (HIV (PBMC)): 26 µM | CC50 [3]: 58.6 µM | CC50 at 24 h [4]: 450 µM | CC50 at 48 h [4]: 357 µM | CC50 at 72 h [4]: 703 µM | IC50 (DDX3 Helicase [5]): 0.4 µM | EC50 (JEV strain (NJ2008)): 6.1 µM | Normalized % infected cells [6]: 80% | effect on EBOV replication, in words [6]: able to affect EBOV replication

CCCCn1nnc(-c2ccc(NC(=O)Nc3ccccc3C)cc2)n1 [Compound 49, 1-(4-(2-butyl-2H-tetrazol-5-yl)phenyl)-3-(o-tolyl)urea]
CC50 [1]: > 50 µM | Papp at 5 h, 0.5 mM [7, 14]: 7.57 ×10⁻⁶ cm/s | PAMPA membrane retention (RM %) [7]: 24.8% | EC50 ([2]; Hepatitis C virus, 48 h): 7.16 µM | EC50 [8]: 5.2 µM | EC50 (HIV (PBMC)): 9.5 µM | CC50 [3]: 11.2 µM | CC50 at 24 h [4]: > 1000 µM | CC50 at 48 h [4]: > 1000 µM | CC50 at 72 h [4]: > 1000 µM | solubility (Water Solubility Assay; [15]): < 0.00316 µM | solubility (Water Solubility Assay; [16]): < 0.001 µg/mL | IC50 (DDX3 Helicase [9]): 4.9 µM | Metabolic stability (Sability %) [10]: 95.6% | EC50 (JEV strain (NJ2008)): 7.1 µM

Cc1ccccc1NC(=O)Nc1cccc([N+](=O)[O-])c1 [EI01D, reference compound]
CC50 [1]: > 50 µM | activity against HCV, in words [2]: completely inactive | EC50 ([2]; Hepatitis C virus, 48 h): > 86 µM | EC50 (HIV): 10 µM | EC50 (HIV (PBMC)): 10 µM | CC50 [3]: 86 µM | CC50 at 72 h [4]: 100 µM | IC50 (DDX3 Helicase [5]): 1 µM | EC50 (JEV strain (NJ2008)): 10 µM

CCCCc1cn(-c2ccc(NC(=O)Nc3ccccc3C(F)(F)F)cc2F)nn1 [Compound 81, 1-(4-(4-butyl-1H-1,2,3-triazol-1-yl)-3-fluorophenyl)-3-(2-(trifluoromethyl)phenyl)urea]
Papp at 5 h, 0.5 mM [7, 14]: 7.22 ×10⁻⁶ cm/s | PAMPA membrane retention (RM %) [7]: 30.4% | EC50 ([2]; Hepatitis C virus, 48 h): 1.99 µM | CC50 [3]: 74.2 µM | solubility (Water Solubility Assay; [15]): 0.398 µM | solubility (Water Solubility Assay; [16]): 80.1 µg/mL | IC50 (DDX3 Helicase [9]): 1 µM | Metabolic stability (Sability %) [10]: 94%

Cc1ccccc1NC(=O)Nc1ccc(-n2cc(CCC(C)C)nn2)cc1 [Compound 20b, 1-(4-(4-isopentyl-1H-1,2,3-triazol-1-yl)phenyl)-3-o-tolylurea]
Papp at 5 h, 0.5 mM [7, 14]: 1.93 ×10⁻⁶ cm/s | PAMPA membrane retention (RM %) [7]: 26.7% | activity against HCV, in words [2]: best activity | EC50 ([2]; Hepatitis C virus, 48 h): 0.8 µM | CC50 [3]: 189 µM | solubility (Water Solubility Assay; [15]): < 0.00251 µM | solubility (Water Solubility Assay; [16]): < 0.001 µg/mL | IC50 (DDX3 Helicase [9]): 0.5 µM | EC50 [11]: 30 µM | CC50 [12]: 209 µM | CC50 at 48 h [13, 17]: 40.4 µM | CC50 at 48 h [13, 18]: 62.3 µM

CCCCc1cn(-c2ccc(NC(=O)Nc3ccccc3C(F)(F)F)cc2)nn1 [Compound 22a, 1-(4-(4-butyl-1H-1,2,3-triazol-1-yl)phenyl)-3-(2-(trifluoromethyl)phenyl)urea]
PAMPA Papp *10^−6 (cm/s) GI [7, 14]: 7.47 *10^−6 cm/s | PAMPA membrane retention (RM %) [7]: 23.9% | activity against HCV, in words [2]: best activity | EC50 ([2]; Hepatitis C virus, 48 h): 0.3 µM | CC50 [3]: 200 µM | solubility (Water Solubility Assay; [15]): 0.0372 µM | solubility (Water Solubility Assay; [16]): 0.107 µg/mL | IC50 (DDX3 Helicase [9]): 0.3 µM | EC50 [11]: 0.6 µM | CC50 [12]: 94.4 µM | CC50 at 48 h [13, 17]: 178 µM | CC50 at 48 h [13, 18]: 145 µM

CCCCCCc1cn(-c2ccc(NC(=O)Nc3ccccc3C(F)(F)F)cc2)nn1 [Compound 8d]
EC50 ([2]; luciferase method in LucUbiNeo-ET cells, 2 days): 0.67 µM | CC50 (Lunet/HuH7 cells): 290 µM

CCOP(=O)(OCC)OCCc1cn(-c2ccc(NC(=O)Nc3ccccc3C)cc2)nn1 [Compound 36, diethyl (2-(1-(4-(3-(o-tolyl)ureido)phenyl)-1H-1,2,3-triazol-4-yl)ethyl) phosphate]
EC50 ([2]; Hepatitis C virus, 48 h): 75 µM | CC50 (in vitro): > 50 µM | CC50 [3]: > 150 µM | IC50 (DDX3 Helicase [5]): 0.9 µM | EC50 (JEV strain (NJ2008)): 21.1 µM
